Patent publication US6458549B2, “Methods of diagnosing renal salt wasting syndrome and Alzheimer's disease and methods of treating the same” (Winthrop-University Hospital, priority 1998, dated 2002)
“Also recorded” adds a separate entry of the source.

Assays:
[1] = system: human kidney proximal tubule cells; assay: Apoptosis of human kidney proximal tubule cells in culture; assay type: cell-based
Method: (§1) Apoptosis Assay (TUNEL): Nuclear DNA fragmentation consistent with apoptosis was determined by the method of TdT-mediated dUTP-biotin nick-end labeling (TUNEL) (Y. Gavrieli et al., J. Cell. Biol. 119:493-501, 1992). The ApopDetek cell death assay kit (Enzo, Farmingdale, N.Y.) was used utilizing terminal deoxynucleotide transferase to incorporate Bio-16-dUTP onto the 3′-OH termini in the DNA of apoptotic cells, subsequent binding with streptavidin-horseradish peroxidase, and visualization after conversion of the substrate and chromagen (hydrogen peroxide and aminoethylcarbazole) into a localized brick red precipitate. A blue counter stain was also used. Slides were then observed for morphologically irregular and condensed nuclei which contain dark red precipitate to indicate TUNEL-positive cells using a Nikon (Nikon, Inc., Melville, N.Y.) Optiphot microscope. Five to six random field totaling approximately 1,000 to 1,500 cells were counted per slide. Apoptotic index (AI), defined as the percent of cells undergoing apoptosis, is calculated by dividing the number of positive nuclei by the total number of nuclei counted multiplied by 100.

LLC-PK1 cells = assay: TUNEL apoptosis assay (apoptotic index) in cultured LLC-PK1 cells; assay type: cell-based, pig; details: for Apoptotic activity (in words): substance alone; for AI: 2 h
Method: Cell Culture and Assay Protocol. LLC-PK1, a pig kidney epithelial cell line was plated at a density of 10^3 cells per well into eight-well Permanox plastic chamber slides (NUNC, Naperville, Ill.). The cells were cultured at 37° C. in 5% CO2 in humidified incubators and grown for 3 days to 70-80% confluency in DMEM-F12 that was supplemented with 10% fetal calf serum, 7.5% sodium bicarbonate, 15 mM HEPES, 200 mM L-Glutamate, 100 u penicillin and 0.1 ug/ml streptomycin (Life Technologies, Gaithersburg, Md.). The culture fluid was then removed and cells were exposed to plasma from control individuals, Alzheimer's disease patients or multi-infarct dementia patients diluted 1:5 in fresh DMEM-F12 media, supplemented as above, for 2 h at 37° C. The cells were then rinsed in PBS, and fixed in 4% formaldehyde in PBS for 10 min., permeabilized with 0.5% Triton X-100 (Sigma Chemical CO., St. Louis, Mo.) for 5 min. and washed in 4 changes of distilled water. A positive control was obtained by exposing cells to 0.6 mM H2O2 diluted in DMEM-F12 for 2 h.
as §1, with “100. […]” for “100.”
Effect of Protein Synthesis on Apoptotic Activity. LLC-PK1 cells were exposed to Alzheimer's disease and control plasma in the absence and presence of cycloheximide (0.2-200 uM) (Sigma, St. Louis, Mo.). Apoptotic index was measured in these cells by TUNEL assay.
Effect of Calcium Depletion on Factor Activity. The TUNEL assay was performed in the usual manner except for substituting DMEM-F12 with calcium-free DMEM, supplemented with dialyzed 10% fetal calf serum (Life Technologies, Grand Island, N.Y.) and 0.6 mM EGTA to chelate calcium. Dialyzed Alzheimer's disease and control plasma were then added to the calcium-free media for 2 h at 37° C. and a TUNEL assay performed.
Contribution of Known Apoptotic Inducers. To test the possibility that the apoptotic factor in Alzheimer's disease plasma was β amyloid, TNF-α or myeloma light chain, the TUNEL assay was repeated as above after a 2 h incubation at 37° C. with […] β amyloid (Peninsula Laboratories, Inc., Belmont, Calif.), 5 pM-3 nM TNF-α (Quantikine, Minneapolis, Minn.) and 3-60 ug λ myeloma light chain, kindly supplied by Dr. Vecihi Batuman, Tulane University School of Medicine, New Orleans, La. To eliminate the possibility that a protease in Alzheimer's disease plasma is responsible for the apoptotic activity, the effect of a broad spectrum protease inhibitor cocktail (Boehringer Mannheim) was studied on apoptotic index using the TUNEL assay. LCC-PK1 cells were incubated with Alzheimer's disease plasma with and without the inhibitor cocktail and assayed as detailed above. This cocktail inhibits a large spectrum of serine, cysteine, and metalloproteases as well as calpains. It consists of aprotinin, leupeptin, EDTA, and pefabloc.

CCCCC[C@H](O)/C=C/[C@H]1C(=O)C[C@H](O)[C@@H]1C/C=C\CCCC(=O)O [Prostaglandin D, prostaglandin D2]
Effect on apoptosis (in words) ([1]; substance alone): did not increase apoptosis

COc1ccc2c(c1)c(CC(=O)O)c(C)n2C(=O)c1ccc(Cl)cc1 [Indomethacin]
Effect on apoptosis (in words) ([1]; simultaneous addition of Indomethacin and Prostaglandin D2 Synthase): did not increase apoptosis above baseline | Effect on apoptosis (in words) ([1]; substance alone): inhibited apoptosis to baseline

CCCCC[C@H](O)C/C=C1/C(=O)C=C[C@@H]1C/C=C\CCCC(=O)O [-Δ^12Prostaglandin J2]
Effect on apoptosis (in words) ([1]; addition of Δ12Prostaglandin J2 to Indomethacin): increased apoptosis | Effect on apoptosis (in words) ([1]; combination of Indomethacin, Prostaglandin D2 Synthase and Δ12Prostaglandin J2): increased apoptosis | Effect on apoptosis (in words) ([1]; substance alone): induces apoptosis; also recorded: increased apoptosis to the same degree as prostaglandin D2 synthase | Effect on apoptosis (in words) ([1]; substance alone, listed as -Δ^12prostaglandin J2): induces apoptosis | Apoptotic activity (in words) (LLC-PK1 cells): increases the rate of apoptosis

CCCCC[C@H](O)/C=C/[C@@H]1[C@@H](C/C=C\CCCC(=O)O)[C@@H]2C[C@H]1OO2 [Prostaglandin H, prostaglandin H2]
Effect on apoptosis (in words) ([1]; substance alone): did not increase apoptosis

β-amyloid
AI (LLC-PK1 cells; 50 uM in media): 6.1±3.1% | Apoptotic activity (in words) (LLC-PK1 cells): No detectable apoptotic activity

Prostaglandins E [Prostaglandin E]
Effect on apoptosis (in words) ([1]; substance alone): did not increase apoptosis

CCN1C(=O)C=CC1=O [N-Ethyl Maleimide]
Effect on apoptosis (in words) ([1]; deactivation/inhibition of Prostaglandin D2 Synthase by N-Ethyl Maleimide): inhibited apoptosis

TNF-α
AI (LLC-PK1 cells; doses as high as 50 pM): 6%

C[C@@H]1C[C@@H]([C@H](O)CC2CC(=O)NC(=O)C2)C(=O)[C@@H](C)C1 [Cycloheximide, cycloheximide]
Effect on apoptosis by Alzheimer's disease plasma (in words) (LLC-PK1 cells; 200 uM cycloheximide): inhibition of apoptosis | AI (%) (LLC-PK1 cells; cycloheximide 200 uM, cells exposed to Alzheimer's plasma): 7.7 ± 1.6% | AI (%) (LLC-PK1 cells; cycloheximide 200 uM, cells exposed to control plasma): 6.3 ± 1.5% | AI (%) (LLC-PK1 cells; cycloheximide 0.2-20 uM, cells exposed to Alzheimer's plasma): 28.7 ± 4.0% | AI (%) (LLC-PK1 cells; cycloheximide 0.2-20 uM, cells exposed to control plasma): 5.0 ± 0.0% | Effect on apoptosis by Alzheimer's disease plasma (in words) (LLC-PK1 cells; lower concentrations of cycloheximide): no inhibition of apoptosis

B1: Prostaglandin D2 Synthase: enzyme that converts prostaglandin H2 to prostaglandin D2; identified apoptotic factor (protein, UniProt P41222 23-190, looked up)
Prostaglandin-H2 D-isomerase: APEAQVSVQPNFQQDKFLGRWFSAGLASNSSWLREKKAALSMCKSVVAPATDGGLNLTSTFLRKNQCETRTMLLQPAGSLGSYSYRSPHWGSTYSVSVVETDYDQYALLYSQGSKGPGEDFRMATLYSRTQTPRAELKEKFTAFCKAQGFTEDTIVFLPQTDKCMTEQ
Effect on apoptosis (in words) ([1]; substance alone): increased apoptosis | Increase of apoptosis above control ([1]; substance alone): about four times above control

B2: α1 microglobulin: protein co-found in the 32 Kd band from urine of a renal salt wasting patient (protein, UniProt P02760 20-203, looked up)
Alpha-1-microglobulin: GPVPTPPDNIQVQENFNISRIYGKWYNLAIGSTCPWLKKIMDRMTVSTLVLGEGATEAEISMTSTRWRKGVCEETSGAYEKTDTDGKFLYHKSKWNITMESYVVHTNYDEYAIFLTKKFSRHHGPTITAKLYGRAPQLRETLLQDFRVVAQGVGIPEDSIFTMADRGECVPGEQEPEPILIPRV
modifications: Alpha-1-microglobulin
notes: protein co-found in the 32 Kd band from urine of a renal salt wasting patient
Apoptotic activity (in words) (LLC-PK1 cells): no apoptotic activity
